Test system: oligodendrocyte precursor cells (OPCs)
Assay: Differentiation of purified oligodendrocyte precursor cells (OPCs) into mature oligodendric cells (MBP / PDGFRα immunostaining)
Format: cell-based, rat
Conditions: 48 hours
Procedure: The OPCs were purified from P7 rat brain cortices. Rodent brain cortices were diced and dissociated with papain at 37° C. After trituration, […] were resuspended in a panning buffer and incubated at room temperature sequentially on the three immunopanning dishes: Ran-2 and GalC were used for negative selection before positive selection with 04. OPCs were released from the panning dish using 0.05% Trypsin. OPCs were seeded onto PPL-coated coverslips at 200,000 per 25 mm circle coverslip in a chemically defined culture medium with PDGFa overnight.
Sodium Butyrate (NaB) was dissolved in sterile water and added into culture medium the next day to reach desire concentration. OPC coverslips were placed into 6-well dishes, 1 ml of NaB-containing culture medium without PDGFα was added to each well. Cells were cultured for 48 hours before fixation and immunostaining. PDGFRα antibody identifies OPCs and MBP (myelin basic protein) antibody labels differentiated oligodendrocytes. Percentage of MBP-positive cells out of all PDGFRα- and MBP-positives cells were quantified.
Examining a dose response for sodium butyrate on purified oligodendroglial cultures. Sodium butyrate was added to purified oligodendroglial cultures and cells were analyzed after 48 hours of treatment for effects on survival, proliferation and differentiation. Oligodendrocyte precursor cells were immunostained with PDGFRα shown in green, oligodendrocytes were immunostained with MBP in red, cell nuclei were labeled with DAPI in blue. Percentage of MBP-positive oligodendrocytes among all oligodendroglial cells was quantified at various concentrations of sodium butyrate. The asterisks represent significance based on Students t-test with the respective controls (*p<0.05, **p<0.01)

For `CCCC(=O)[O-].[Na+]` [sodium butyrate, Sodium Butyrate], the “effect to promote OPC to differentiate into mature oligodendric cells (dose response)” value (50 nM to 250 μM) was “dose-dependent manner”, the “number of oligodendric cells from OPC compared to the control (MBP immunohistochemistry, FIG. 7)” value (250 μM sodium butyrate) was “statistically significant increase” and the “fold increase in the numbers of differentiated and matured oligodendric cells as compared to the control” value (250 μM sodium butyrate, OPCs from P7 rat brain cortices) was 2.6 fold. For the same molecule, the “increase in Oligo cells (percentage of MBP-positive cells) as compared to the control” value (each of the concentrations tested (50 nM, 500 nM, 5 μM, 50 μM, 250 μM)) was “statistically significant increase”.
